Each structure is given as a SMILES string. “And” between values parts separate entries of the source, which are not always exact repeats. Equal entries are not always repeated. Where two headings read alike, the source gives them in different places. Non-standard residues stand in square brackets, D forms with d. Residues, ends and D or L forms follow the SMILES beside them.

The values below come from patent publication US5389615A, “Peptides and pharmaceutical composition thereof in the treatment of pain” (British Technology Group Ltd., priority 1988, dated 1995).

Data set [1] concerns hyperalgesia evoked by acetic acid. Description: Contorsions evoked by acetic acid, Example 19. It counts as in vivo, mice. Particulars: for number of contorsions (median), 10 to 20 min after acetic acid: 30 min before acetic acid. The method, then:
The number of contorsions (abdominal constrictions or writhes) was counted in the period between 10 and 20 min after ip challenge with acetic acid by an observer unaware of drug treatment.

The test system of data set [2] is hyperalgesia evoked by IL-1β. Description: Modified Randall-Sellito rat paw pressure test, hyperalgesia evoked by IL-1β. In kind it is in vivo. To be noted: for DELTA REACTION TIME: 3h after IL-1β, control 23.9.
Method: The hyperalgesic activity of IL-1β was investigated by a modified Randall-Sellito rat paw pressure test (Ferreira et al, Eur. J. Pharacol. 53, 39-48, 1978).
The IL-1β was given either intraplantar (ipl, injection volume=0.1 ml) or intraperitoneally (ip, injection volume=0.3 ml).
The intensity of hyperalgesia was quantified as the variation of the reaction time (Δ reaction time, sec) obtained by subtracting the value measured 1,2,3 or 4h after administration of the hyperalgesic agent from the pre-injection control reaction time (zero time). The experimenter was unaware of the group treatments.
The vertical bars are standard errors of the means (s.e.m's) of values obtained in groups of 5 rats.
Each symbol or histogram represents the mean response of 5 animals per treatment group. Vertical bars are s.e.m's.
The data are means±s.e.m.'s of 5 animals per treatment group.
Each symbol represents the mean response of 5 animals per treatment group. Vertical bars are s.e.m.'s.
Treatments were given ip, lh before Il-1β, also given ip. There were 5 animals per treatment group.
Delta reaction time was measured 3h after Il-1β administration.
The Control was II-1β (0.05U), given ip.
The test system of data set [3] is hyperalgesia evoked by PGE2. Nature of the data set: Rat paw pressure test, hyperalgesia evoked by PGE2. To be noted: for DELTA REACTION TIME: 3 h after PGE2, control 16.8. In kind it is in vivo.
Data set [4] relates to hyperalgesia evoked by DbcAMP. Nature of the data set: Rat paw pressure test, hyperalgesia evoked by DbcAMP. It counts as in vivo.
For data set [5] the following is noted: in vivo.
Data set [6] concerns hyperalgesia evoked by IL-1β. To be noted: reference analgesics; cited from earlier work.
Data set [7] has as its system human blood mononuclear cells (MNC). Description: PGE2 release by human blood mononuclear cells. In kind it is cell-based. The method, then:
The effect of K(D)PT and indomethacin on PGE2 release by human blood mononuclear cells (MNC) was investigated. The MNC were isolated from buffy coat residues by density gradient centrifugation (Ficoll-hypaque, Sigma) and resuspended in RPMI 1640 culture medium (Gibco)+ 2% inactivated foetal calf serum (Imperial Laboratories). […] Values are means of quadruplicates ±s.e.m.'s. PGE2 concentrations were measured by radioimmunoassay (NEN Research Products).

The conditions of data set [8]: mouse, in vivo.
Data set [9] has as its system hyperalgesia evoked by Iloprost. Nature of the data set: Contortions (writhing) evoked by Iloprost, Examples 9 and 10. It counts as in vivo, mice. Particulars: Example 10, Iloprost 10 μg/kg; for total number of contorsions during 20 minutes after ip challenge: control 39.4. On the procedure: (§1) Iloprost is a stable analogue of prostacyclin and has the formula: [drawing 4]
(§2) Example 9 was repeated with some groups of mice given indomethacin at various doses rather than the peptide K(D)PT. A control group of mice received neither indomethacin nor K(D)PT. The data are the total number of contorsions measured during 20 minutes after the ip challenge.

The test system of data set [10] is hyperalgesia evoked by acetic acid. Nature of the data set: Contortions (writhing) evoked by acetic acid, Examples 9 and 10. It counts as in vivo, mice. Particulars: Example 10; for total number of contorsions during 20 minutes after ip challenge: control 45.3. The method, then: as §1, §2
Background: Writhing tests count abdominal constrictions after an irritant is injected.

The mark [11] stands for this setting: 20 μg/150 g rat ip 1h before IL-1β (0.05U) ip.
The mark [12] stands for this setting: 50 μg/150 g rat ip 1h before IL-1β (0.05U) ip.
[13] abbreviates: 100 μg/150 g rat ip 1h before IL-1β (0.05U) ip.
Setting [14] is: 200 μg/150 g rat ip 1h before IL-1β (0.05U) ip.
The mark [15] stands for this setting: 20 μg/150 g rat ip 1h before PGE2 ipl.
[16] abbreviates: 50 μg/150 g rat ip 1h before PGE2 ipl.
Setting [17] is: 100 μg/150 g rat ip 1h before PGE2 ipl.
[18] abbreviates: 200 μg/150 g rat ip 1h before PGE2 ipl.
The mark [19] stands for this setting: indomethacin 100 μg ipl 30 minutes before 0.05U IL-1β ipl or ip.

Take `NCCCC[C@H](N)C(=O)N1CCC[C@@H]1C(=O)O` [K(D)P, Lys-D-Pro] (H-Lys-[dP]-OH): the “% reductions from control values in mice injected with saline” value (from here on “% reductions from control values”) was -58% in [1] (5 mg/kg ip); -10% in data set [1] (5 mg/kg po); -36% in data set [1] (10 mg/kg po); -77% in data set [1] (20 mg/kg ip); -38% in [1] (20 mg/kg po). The “number of contorsions (median), 10 to 20 min after acetic acid” value (shortened to “number of contorsions (median)”) turned out to be 11 in [1] (5 mg/kg ip); 19 in data set [1] (5 mg/kg po); 13.5 in data set [1] (10 mg/kg po); 6 in data set [1] (20 mg/kg ip); 14 in data set [1] (20 mg/kg po). Moreover, the “analgesic activity against hyperalgesia evoked by acetic acid, given ip” value in data set [1] was “effective analgesic”. Also, the “analgesic activity against hyperalgesia evoked by acetic acid, given orally” value in data set [1] (po) is on record as “effective analgesic”.
Consider `CC(C)[C@H](NC(=O)[C@H]1CCCN1C(=O)[C@@H](N)CCCCN)C(=O)O` [K(D)PV, Lys-D-Pro-Val] (H-Lys-[dP]-Val-OH), for which the “% reductions from control values” value in data set [1] (2 mg/kg ip) is listed as -33%; in data set [1] (10 mg/kg ip) it was -38%; in data set [1] (30 mg/kg ip) it was -45%; in data set [1] (100 mg/kg ip), -74%; in [1] (100 mg/kg po), -52%. Further, the “number of contorsions (median)” value in [1] (2 mg/kg ip) turned out to be 19; in [1] (10 mg/kg ip), 17; in data set [1] (30 mg/kg ip), 15.5; in [1] (100 mg/kg ip) it was 7; in data set [1] (100 mg/kg po), 13. Besides, in [1], the “analgesic activity against hyperalgesia evoked by acetic acid, given ip” value is on record as “dose-related analgesic activity”. For the same molecule, the “% change of delta reaction time vs control (=100%)” value in [2] (setting [11]) is -23.9%; in data set [2] (setting [12]), -64.4%; in data set [2] (setting [13]), 84.1%; in data set [2] (setting [14]), -88.3%; in data set [3] (setting [15]) it was -16.7%; in data set [3] (setting [16]) it was -20.2%. Besides, the “% change of delta reaction time vs control (=100%)” value in data set [3] (setting [17]) is recorded as -46±4%; in data set [3] (setting [18]) it was -64.3%; in [4] (200 μg/150 g rat ip 1 h before DbcAMP (100 μg/paw) ipl), -7.0%. In addition, the “DELTA REACTION TIME” value was 18.2 ± 0.4 s in data set [2] (setting [11]); 8.5 ± 0.6 s in [2] (setting [12]); 3.8 ± 0.7 s in data set [2] (setting [13]); 2.8 ± 0.6 s in data set [2] (setting [14]); 14.0 ± 0.4 s in data set [3] (setting [15]); 13.4 ± 0.4 s in data set [3] (setting [16]). Moreover, the “DELTA REACTION TIME” value is 9.0 ± 0.2 s in [3] (setting [17]); 6.0 ± 0.3 s in [3] (setting [18]); 16.0 ± 0.2 s in [4] (200 μg/150 g rat ip 1 h before DbcAMP (100 μg/paw) ipl, 3 h after DbcAMP, control 17.2). Besides, the “ED50 antagonising IL-1β evoked hyperalgesia” value in [2] (rats) is given as 40 μg/150 g rat. Moreover, the “antagonism of hyperalgesia evoked by IL-1β” value in [2] (rats, peptide given before IL-1β) is on record as “more potent antagonists of I1-1β-evoked hyperalgesia than Lys-D-Pro-Thr”. In data set [3] (rats), the “ED50 antagonising PGE2 evoked hyperalgesia” value was ~140 μg/150 g rat. Besides, the “antagonism of hyperalgesia evoked by PGE2” value in data set [3] (rats) was “antagonize hyperalgesia evoked by PGE2”.
As for `CN1CC[C@]23c4c5ccc(O)c4O[C@H]2[C@@H](O)C=C[C@H]3[C@H]1C5` [Morphine, morphine], the “antagonism of hyperalgesia evoked by DbcAMP” value in [4] (rat, in vivo) was “effective antagonist”. Moreover, the “reaction time difference, hot plate” value in [5] was 3.52 s and 5.55 s. Besides, in data set [6], the “antagonism of on-going hyperalgesia” value is given as “able to antagonize on-going hyperalgesia”.
As for `Cc1c(N(C)CS(=O)(=O)O)c(=O)n(-c2ccccc2)n1C` [dipyrone], the “antagonism of on-going hyperalgesia” value in [6] is “able to antagonize on-going hyperalgesia”.
For the molecule `COc1ccc2c(c1)c(CC(=O)O)c(C)n2C(=O)c1ccc(Cl)cc1` [Indomethacin, indomethacin], the “effect on production of PGE2 / prostaglandin” value in [7] was “abolished PGE2 production”. Also, the “PGE2 release by MNC incubated for 4h with IL-1α (50 U/ml)” value in data set [7] (2 μg/ml, 5.9 micromoles/L, added 45 min before, ethanol control 2.0) came to 0.03 ± 0.0007 ng/mL. In addition, the “PGE2 release by MNC incubated for 4h with IL-1β (50 U/ml)” value in [7] (2 μg/ml, 5.9 micromoles/L, added 45 min before, ethanol control 2.1) was 0.03 ± 0.0005 ng/mL. In addition, in [7] (2 μg/ml, 5.9 micromoles/L, added 45 min before, ethanol control 3.1), the “PGE2 release by MNC incubated for 4h with E. coli endotoxin (25 pg/ml)” value was determined as 0.03 ± 0.0004 ng/mL. Further, the “PGE2 release by MNC (5 × 10^6 cells/ml) incubated for 4h with Saline control (0.9% w/v)” value in [7] (2 μg/ml, 5.9 micromoles/L, ethanol control 1.3) is given as 0.03 ± 0.0002 ng/ml. Also, in [8], the “gastric erosions, % of the mice” value stood at 100%. In addition, in data set [8], the “gastric lesions” value was “caused gastric lesions”. Moreover, the “% reductions from control values” value is on record as -37% in data set [1] (2.5 mg/kg ip), -61.5% in data set [1] (5 mg/kg ip) and -61.5% in data set [1] (10 mg/kg ip). Also, the figures for the “number of contorsions (median)” value in [1] (2.5 mg/kg ip), in [1] (5 mg/kg ip) and in data set [1] (10 mg/kg ip) were 16.5, 10 and 10, respectively. Further, the “effect of pretreatment on hyperalgesic response to IL-1β, contralateral paws (CL)” value in data set [2] (setting [19]) is recorded as “no effect”. Moreover, in data set [2] (setting [19]), the “effect of pretreatment on hyperalgesic response to IL-1β, treated paws (I)” value is reported as “markedly attenuated”. Further, the “(-%) reduction of contorsions vs control” value in [9] (1.25 mg/kg) amounted to 7.6%; in data set [9] (5.0 mg/kg) it was 26.0%; in data set [9] (20.0 mg/kg), 46.0%; in data set [10] (acetic acid .6%, 1.25 mg/kg), 23.6%; in data set [10] (acetic acid .6%, 5.0 mg/kg), 46.3%; in [10] (acetic acid .6%, 20.0 mg/kg) it was 57.4%. Further, the “total number of contorsions during 20 minutes after ip challenge” value was 36.4 in data set [9] (1.25 mg/kg); 29.2 in [9] (5.0 mg/kg); 21.3 in data set [9] (20.0 mg/kg); 34.6 in [10] (acetic acid .6% 0.1 ml/10 g, 1.25 mg/kg); 24.3 in data set [10] (acetic acid .6%, 5.0 mg/kg); 19.3 in [10] (acetic acid .6%, 20.0 mg/kg).
Regarding `C[C@@H](O)[C@H](NC(=O)[C@H]1CCCN1C(=O)[C@@H](N)CCCCN)C(=O)O` [K(D)PT, Lys-D-Pro-Thr] (H-Lys-[dP]-Thr-OH), the results for the “gastric lesions” value in “Gastric lesions in mice” (32 mg/kg) and in “Gastric lesions in mice” (mice of Example 10) were “No lesions were observed” and “did not”, respectively.
